Assay results as given in patent US9789096B2, “Methods and compositions for selective and targeted cancer therapy” (Board of Regents of the University of Texas System, priority 2013, dated 2017).
Like-named read-outs stand apart in the source and are kept apart here.

Experiments:
H2122 cells [1] = test: Metabolism by sensitive cells (HPLC/MS/MS); assay type: in vitro ADME, human
Procedure: FIGS. 9A-9D. Selective toxins selectively cross-link to SCD1 in sensitive cells and are selectively metabolized in sensitive cells. FIG. 9A. 12 NSCLC cell lines were incubated with SW208108 and processed as described in FIG. 7. […] FIG. 9B. […] FIG. 9C. […] Demethylation is the anticipated mode of metabolism. FIG. 9D. A representative benzothiazole is demethylated by sensitive cell lines. […] Values in FIGS. 9C and 9D were obtained by tandem HPLC/MS/MS.
In this context, 12 different NSCLC cell lines were treated with SW208108, lysed and clicked to a dye as previously described. […] To understand how SW208108 could selectively cross-link to SCD1 within some cell lines that expressed the enzyme but not other cell lines that expressed the same enzyme, we investigated the stability of a representative oxalamide in the presence of a sensitive and insensitive cell line. […] Similarly, a representative benzothiazole was metabolized by H2122 cells through, at least in part, the loss of the O-methyl group (FIG. 9D).

H2009 = test: Cell viability dose-response, H2009; assay type: cell-based, human; conditions: Homo sapiens, NCI-H2009; Tables 3 and 4; read-out: IC50 (uM) vs indicated non-small cell lung cancer cell line H2009
Summary of the method: (§1)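 Proliferation/viability determined by ATP content following 4-day incubation with test compound in RPMI-1640 + 5% serum + 2 mM glutamine. IC50 taken as the concentration halving ATP signal on the dose-response curve.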

GSK3beta = biological target: T1, GSK3beta (Homo sapiens, UniProt P49841); test: Kinase inhibition assay (EMD Millipore), GSK3beta; assay type: biochemical; conditions: 100 nM
T1 construct: purchased EMD Millipore
T1 sequence (P49841 whole entry): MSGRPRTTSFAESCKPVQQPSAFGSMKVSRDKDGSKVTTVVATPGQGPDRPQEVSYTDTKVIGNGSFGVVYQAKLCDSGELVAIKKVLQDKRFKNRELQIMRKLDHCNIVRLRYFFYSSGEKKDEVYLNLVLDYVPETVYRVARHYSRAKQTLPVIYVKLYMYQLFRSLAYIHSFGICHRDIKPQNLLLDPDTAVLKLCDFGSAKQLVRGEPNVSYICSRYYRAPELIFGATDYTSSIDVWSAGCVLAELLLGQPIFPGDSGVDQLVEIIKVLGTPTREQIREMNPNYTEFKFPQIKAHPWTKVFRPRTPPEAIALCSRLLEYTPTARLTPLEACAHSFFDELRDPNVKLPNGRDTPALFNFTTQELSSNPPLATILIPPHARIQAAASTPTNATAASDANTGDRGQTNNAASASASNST
Procedure: (§2) Specifically, kinase inhibition assays were performed at EMD Millipore at 1, 10 and 100 nM SW202857 and individually optimized concentrations of ATP. […] Listed kinases are the human enzyme unless indicated: mouse (m), rat (r), yeast (y).

H1155 = test: Cell viability dose-response, H1155; assay type: cell-based; conditions: Homo sapiens, NCI-H1155; Tables 3 and 4; read-out: IC50 (uM) vs indicated non-small cell lung cancer cell line H1155
Procedure: (§3) FIG. 6A. […] Cell viability is plotted vs. compound concentration. Compound was added to cells plated at 15% confluence in 96-well plates in RPMI-1640 media supplemented with 5% Fetal Bovine Serum and 2 mM L-Glutamine. After 4 days of incubation, ATP levels were measured using Cell Titer Glo (Promega). Data are presented as the average of 2 replicates ±SEM.
(§4) Selectivity may be measured by the half maximal inhibitory concentration (IC50), which, as used herein, is a measure of the effectiveness of a compound in killing cells. This quantitative measure indicates how much of a particular compound is needed to kill a particular cell population by half (e.g., as indicated by the amount of ATP). […] The IC50 can be determined by constructing a dose-response curve. The lower the IC50, the higher the potency, and the greater the difference between IC50 values for different cell lines (e.g., sensitive lines vs. insensitive lines, and sensitive lines vs. normal lines) the greater the selectivity. […]
(§5) With this information, we synthesized and tested a series of small molecules derived in conception from the oxalamide and chromone scaffold including N-acyl ureas, as shown in Tables 6-8. Each compound was tested in a 12-point dose-response study starting at 50 micromolar and decreasing in 3-fold increments to sub-nanomolar concentrations, in duplicate. Additionally, one or more additional cell line was tested in the same way.

H460 = test: Cell viability dose-response, H460; assay type: cell-based; conditions: Homo sapiens, NCI-H460; Tables 3 and 4; read-out: IC50 (uM) vs indicated non-small cell lung cancer cell line H460
Procedure: as §3, §4, §5

HCC44 = test: Cell viability dose-response, HCC44; assay type: cell-based, human; conditions: Homo sapiens, HCC44, Tables 3 and 4; read-out: IC50 (uM) vs indicated non-small cell lung cancer cell line HCC44
Summary of the method: as §1

HCC95 = test: Cell viability dose-response, HCC95; assay type: cell-based; conditions: Homo sapiens, Tables 3 and 4, read-out: IC50 (uM) vs indicated non-small cell lung cancer cell line HCC95
Procedure: as §3, §4, §5

[2] = tested on: about 300 protein kinase enzymes; test: Kinase inhibition assays (EMD Millipore); assay type: biochemical, human
Procedure: as §2

H2073 = test: Cell viability dose-response, H2073; assay type: cell-based, human; conditions: Homo sapiens, NCI-H2073, Tables 3 and 4; read-out: IC50 (uM) vs indicated non-small cell lung cancer cell line H2073
Summary of the method: as §1

H2122 = test: Cell viability dose-response, H2122; assay type: cell-based, human; conditions: Homo sapiens
Summary of the method: (§6)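 Viability read as total ATP (Cell Titer Glo) following 4 days' compound exposure, with IC50 derived from dose-response curves. Duplicate 12-point series, top concentration 50 micromolar with 3-fold steps, on cells seeded at 15% confluence in RPMI-1640, 5% FBS, 2 mM L-glutamine.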

HBEC30KT = test: Cell viability (ATP, Cell Titer Glo, 4 days), HBEC30KT; assay type: cell-based, human; conditions: Homo sapiens, Tables 3 and 4; read-out: HBEC30KT IC50
[3] = tested on: 12 lung adenocarcinoma cell lines; test: Proliferation of the panel of 12 lung adenocarcinoma cell lines; assay type: cell-based, human
Procedure: as §3
To discover selective agents, twelve cell lines of diverse genotype were selected for analysis. 108 lung cancer cell lines were initially clustered into six groups based on mRNA expression of genes that underwent frequent copy number variation. Two cell lines were chosen from each group for high throughput chemical screening. All 12 of the chosen cell lines were derived from lung adenocarcinomas, eliminating both lineage and histology as confounders. None of the cell lines chosen for screening harbored EGFR mutations or ALK rearrangements, so that the final set represented a collection of diverse lung adenocarcinoma genotypes for which there are no targeted therapy.
The proliferative impact of each compound in the library was assayed by analyzing total ATP four days after administration of 2.5 μM in a single well. This first pass yielded 15,843 toxins defined as a compound where ATP levels were […] three standard deviations below the mean for at least one cell line. For each of these putative toxins, the average effect on proliferation was retested on each cancer cell line and a non-cancerous immortalized HBEC line (control), yielding a confirmation dataset.
(§7) In addition, N-acyl benzothiazoles was also discovered, such as 4-amino-N-(6-methoxybenzo[d]thiazol-2-yl)benzamide (ATB). We compared the proliferation of 12 lung adenocarcinoma cell lines and three HBEC lines after the addition of ATB.
(§8) We subsequently synthesized various derivatives that are both selective and potent (Tables 1 and 2). One leading candidate is a benzothiazole, SW202857, that inhibits proliferation in three of 12 adenocarcinoma cell lines at concentrations less than 10 nM.

[4] = tested on: 3 human bronchial epithelial (HBEC) cell lines; test: Vitality of human bronchial epithelial (HBEC) cell lines; assay type: cell-based; conditions: at 10 μM
Procedure: as §7, §8

H1819 = test: Cell viability dose-response, H1819; assay type: cell-based, human; conditions: Homo sapiens, NCI-H1819, Tables 3 and 4; read-out: IC50 (uM) vs indicated non-small cell lung cancer cell line H1819
Summary of the method: as §6

[5] = Stability in mouse liver S9 fractions; assay type: in vitro ADME
HCC4017 = test: Cell viability dose-response, HCC4017; assay type: cell-based, human; conditions: Homo sapiens, HCC4017, Tables 3 and 4; read-out: IC50 (uM) vs indicated non-small cell lung cancer cell line HCC4017
Summary of the method: as §1

H1993 = test: Cell viability dose-response, H1993; assay type: cell-based; conditions: Homo sapiens, NCI-H1993; Tables 3 and 4; read-out: IC50 (uM) vs indicated non-small cell lung cancer cell line H1993
Procedure: as §3, §4, §5

H1395 = test: Cell viability dose-response, H1395; assay type: cell-based; conditions: Homo sapiens, NCI-H1395; Tables 3 and 4; read-out: IC50 (uM) vs indicated non-small cell lung cancer cell line H1395
Procedure: as §3, §4, §5

[6] = ADME for xenograft studies; assay type: in vivo
H2122 xenografts = test: In vivo efficacy, H2122 xenografts in NOD/SCID mice; parameters: species or system mouse; conditions: 25 mg/kg IP twice daily
Procedure: (§9) FIG. 6C. […] NOD/SCID mice were injected with either H2122 (sensitive) or H1155 (insensitive) cells subcutaneously on day 0. When tumors reached 200 cubic mm, treatment with SW203668 (listed as A2) or vehicle was initiated (as indicated by the arrow) with twice daily doses of 25 mg/kg, IP. Tumor size was measured every 3 days for the duration of the study. Data are plotted as mean±SEM; n=12 for each group.

H1155 xenografts = test: In vivo efficacy, H1155 xenografts in NOD/SCID mice; parameters: species or system mouse; conditions: 25 mg/kg IP twice daily
Procedure: as §9

H2122 cells [7] = test: Toxicity to H2122 cells with or without CYP4 inhibitor HET0016; assay type: cell-based, human
HopS62 = test: Cell viability dose-response, HopS62; assay type: cell-based; conditions: Homo sapiens; Table 4; read-out: IC50 (uM) vs indicated non-small cell lung cancer cell line HopS62
Procedure: as §3
Selectivity may be measured by the half maximal inhibitory concentration (IC50), which, as used herein, is a measure of the effectiveness of a compound in killing cells. This quantitative measure indicates how much of a particular compound is needed to kill a particular cell population by half (e.g., as indicated by the amount of ATP). […] The IC50 can be determined by constructing a dose-response curve. The lower the IC50, the higher the potency, and the greater the difference between IC50 values for different cell lines (e.g., sensitive lines vs. insensitive lines, and sensitive lines vs. normal lines) the greater the selectivity.
as §5, with “Additionally, one or more additional cell line was tested in the same way.” left out

[8] = NCI-H2122, Table 9, competitor, read-out: IC50 to H2122 cells
[9] = NCI-H2122, Tables 3 and 4, read-out: IC50 (uM) vs indicated non-small cell lung cancer cell line H2122

In the case of `COc1ccc2nc(NC(=O)c3ccc(C(=O)c4ccccc4)cc3)sc2c1` [SW202857-1, 4-benzoyl-N-(6-methoxybenzo[d]thiazol-2-yl)benzamide], the “metabolism by sensitive H2122 cells” value (H2122 cells [1]) is reported as “demethylated”, the IC50 (H2009) is reported as 3.16 µM and the inhibition at 0.1 µM (GSK3beta) is reported as 21%. The IC50 (H1155) was 22.3 µM, the IC50 (H460) was 0.046 µM and the IC50 (HCC44) was 0.0236 µM. The IC50 (HCC95) was 10.8 µM, the “inhibition of about 300 protein kinase enzymes in vitro” value ([2]; 0.10 μM) was “failed to inhibit” and the “inhibition, all other kinases” value ([2]; highest concentration (100 nM)) was no more than 15%. It also gave an IC50 (H2073) of 0.0185 µM, an IC50 (H2122; [8]) of 0.00923 µM and an IC50 (H2122; [9]) of 0.00839 µM. The IC50 (HBEC30KT) was 22800 nM, the “toxic concentration against four sensitive cell lines” value ([3]; four sensitive cell lines) was “less than 50 nM” and the “concentration that inhibits proliferation in three of 12 adenocarcinoma cell lines” value ([3]; three sensitive lines) was “less than 10 nM”. For the same molecule, the “toxic effect on the other 9 adenocarcinoma cell lines” value ([3]; up to 10 μM) was “no toxic effect”, the “vitality of 3 human bronchial epithelial (HBEC) cell lines” value [4] was “nor does it affect the vitality” and the IC50 (H1819) was 42.7 µM. For the same molecule, the “stability in the presence of mouse liver S9 fractions” value [5] was “chemically stable”, the IC50 (HCC4017) was 32.6 µM and the IC50 (H1993) was 21.3 µM. It also gave an IC50 (H1395) of 31.8 µM.
In the case of `COc1ccc2nc(NC(=O)c3ccc(C(N)c4ccccc4)cc3)sc2c1` (stereo not shown) [SW203668], the “absorption, distribution, metabolism, and excretion (ADME)” value [6] is reported as “appropriate absorption, distribution, metabolism, and excretion”, the “tumor growth inhibition in H2122 xenografts” value (H2122 xenografts) is reported as “selective toxicity” and the IC50 (H2122; [9]) is reported as 0.035 µM. The “tumor growth inhibition in H1155 xenografts” value (H1155 xenografts) was “but not H1155 xenografts”.
With `COc1ccc(CCNC(=O)NC(=O)c2ccc(Oc3ccccc3)cc2)cc1` [SW208456] the “toxicity to H2122 cells in the presence of CYP450 inhibitor HET0016” value (H2122 cells [7]) was “rescued” and the IC50 (H2122; [8]) was 0.0134 µM.
For `O=C(NCCc1ccc(O)cc1)NC(=O)c1ccc(Oc2ccccc2)cc1` [SW208523], the “toxicity to H2122 cells in the presence of CYP450 inhibitor HET0016” value (H2122 cells [7]) was “toxic to H2122 cells in the presence or absence of the CYP450 inhibitor” and the IC50 (H2122; [8]) was 0.0197 µM.
For `O=C(Nc1nc2ccccc2o1)c1ccc(C(=O)c2ccccc2)cc1` [SW208665-1], the IC50 (HopS62) was 1.93 µM, the IC50 (HCC44) was 2.14 µM and the IC50 (H2122; [8]) was 0.8 µM. The IC50 (H2122; [9]) was 42.7 µM.
Molecule `O=C(Nc1nc2c(s1)CCC2)c1ccc(C(=O)c2ccccc2)cc1` [SW208666-1] has an IC50 (HopS62) of 0.09 µM, an IC50 (HCC44) of 3.52 µM and an IC50 (H2122; [9]) of 0.26 µM.
